Experiments:
pigweed = experiment: Test B pre-/postemergence herbicide test; type: in vivo, Amaranthus retroflexus
In short: (§1)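 Herbicidal effect was judged by eye on a 0–100 scale after plants stood 13 to 15 days in the greenhouse following pre- or postemergence treatment with surfactant-containing formulations.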

lambsquarters = experiment: Test C pre-/postemergence herbicide test; type: in vivo, Chenopodium album
In short: (§2)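 Seeds were planted and sprayed preemergence with test chemicals in a non-phytotoxic solvent mixture containing surfactant; postemergence treatments went onto plants 2 to 18 cm tall (1- to 4-leaf stage). After 12 to 14 days in a greenhouse, injury was rated visually against untreated controls on a 0–100 scale.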

goosegrass = experiment: Test C pre-/postemergence herbicide test; type: in vivo, Eleusine indica
In short: as §2

Surinam grass = experiment: Test C pre-/postemergence herbicide test; type: in vivo, Urochloa decumbens
In short: as §2

common ragweed = experiment: Test C pre-/postemergence herbicide test; type: in vivo, Ambrosia elatior; design: key to Plant response rating, Ragweed: 0 = no effect, 100 = complete control
In short: as §2

large crabgrass = experiment: Test C pre-/postemergence herbicide test; type: in vivo, Digitaria sanguinalis
In short: as §2

giant foxtail = experiment: Test B pre-/postemergence herbicide test; type: in vivo, Setaria faberi; details: for Foxtail, Giant plant response rating: postemergence
In short: as §1

kochia = experiment: Test C pre-/postemergence herbicide test; type: in vivo, Kochia scoparia
In short: as §2

[1] = test system: smallflower umbrella sedge; experiment: Test C flooded paddy test; type: in vivo, Cyperus difformis; details: for Plant response rating, Sedge, Umbrella: 500 g ai/ha, visual rating after 12 to 14 days
[2] = 125 g ai/ha, 0 = no effect, 100 = complete control, preemergence
[3] = 125 g ai/ha, visual rating, scale 0 (no effect) to 100 (complete control), postemergence
[4] = Postemergence, 250 g ai/ha, scale 0 to 100, 0 no effect, 100 complete control
[5] = postemergence, 125 g ai/ha, scale 0 to 100
[6] = postemergence, 62 g ai/ha, scale 0 to 100
[7] = 125 g ai/ha, visual rating, scale 0 (no effect) to 100 (complete control)
[8] = 500 g ai/ha, scale 0 to 100, 0 is no effect, 100 is complete control
[9] = 125 g ai/ha, scale 0 to 100 (0 no effect, 100 complete control)
[10] = 250 g ai/ha, scale of 0 to 100, 0 is no effect, 100 is complete control
[11] = scale 0 to 100 (0 no effect, 100 complete control)
[12] = 125 g ai/ha, 0 is no effect, 100 is complete control, preemergence
[13] = 62 g ai/ha, preemergence, scale 0 to 100
[14] = 250 g ai/ha, scale 0-100, preemergence
[15] = 500 g ai/ha, scale 0 to 100 (0 no effect, 100 complete control), visual, 12 to 14 days, preemergence

CCOC(=O)c1cccc(NC(=O)c2cc(C3(C)CC3)nn2CC)c1 [Compound 295]
Pigweed plant response rating (0 to 100 scale) (pigweed; [2]): 0
Pigweed plant response rating (pigweed; [3]): 100
Pigweed plant response rating (pigweed; postemergence, 500 g ai/ha, scale 0 to 100, 0 is no effect, 100 is complete control): 100
Plant response rating, Lambsquarters (lambsquarters; [4]): 50
Plant response rating, Lambsquarters (lambsquarters; [5]): 5
Plant response rating, Lambsquarters (lambsquarters; [6]): 0
Plant response rating, Goosegrass (goosegrass; [4]): 50
Plant response rating, Goosegrass (goosegrass; [5]): 20
Plant response rating, Goosegrass (goosegrass; [6]): 20
Plant response rating, Surinam Grass (Surinam grass; [4]): 15
Plant response rating, Surinam Grass (Surinam grass; [5]): 5
Plant response rating, Surinam Grass (Surinam grass; [6]): 5
Plant response rating, Ragweed (common ragweed; [4]): 40
Plant response rating, Ragweed (common ragweed; [5]): 30
Plant response rating, Ragweed (common ragweed; [6]): 25
Plant response rating, Crabgrass, Large (large crabgrass; [4]): 35
Plant response rating, Crabgrass, Large (large crabgrass; [5]): 30
Foxtail, Giant plant response rating (0 to 100 scale) (giant foxtail; [2]): 10
Foxtail, Giant plant response rating (giant foxtail; [7]): 60
Plant response rating, Foxtail, Giant (giant foxtail; 500 g ai/ha, visual rating, 0 = no effect, 100 = complete control, preemergence): 70
Foxtail, Giant plant response rating (giant foxtail; [8]): 70
Plant response rating, Kochia (kochia; [4]): 90
Plant response rating, Kochia (kochia; [5]): 85
Plant response rating, Kochia (kochia; [6]): 80
Sedge, Umbrella plant response rating ([1]; 62 g ai/ha, scale 0 to 100): 80
Sedge, Umbrella plant response rating [1, 9]: 80
Sedge, Umbrella plant response rating [1, 10]: 80
Plant response rating, Sedge, Umbrella [1, 11]: 80

CCc1nn(C(C)C)nc1C(=O)Nc1cccc(C(=O)N(C)CC)c1 [Compound 386]
Plant response rating (0 to 100 scale), Pigweed (pigweed; [12]): 100
Pigweed plant response rating (pigweed; [3]): 50
Pigweed plant response rating (pigweed; Postemergence, 500 g ai/ha, scale 0 (no effect) to 100 (complete control)): 60
Plant response rating, Lambsquarters (lambsquarters; [13]): 100
Plant response rating (0 = no effect, 100 = complete control), Lambsquarters (lambsquarters; 125 g ai/ha, preemergence): 100
Plant response rating, Lambsquarters (lambsquarters; [14]): 100
Plant response rating, Lambsquarters (lambsquarters; [15]): 100
Plant response rating, Goosegrass (goosegrass; [13]): 85
Plant response rating (0 = no effect, 100 = complete control), Goosegrass (goosegrass; 125 g ai/ha, preemergence): 95
Plant response rating, Goosegrass (goosegrass; [14]): 95
Plant response rating, Goosegrass (goosegrass; [15]): 95
Plant response rating, Surinam Grass (Surinam grass; [13]): 80
Plant response rating (0 = no effect, 100 = complete control), Surinam Grass (Surinam grass; 125 g ai/ha, preemergence): 80
Plant response rating, Surinam Grass (Surinam grass; [14]): 95
Plant response rating, Surinam Grass (Surinam grass; [15]): 95
Plant response rating, Ragweed (common ragweed; [13]): 5
Plant response rating (0 = no effect, 100 = complete control), Ragweed (common ragweed; 125 g ai/ha, preemergence): 98
Plant response rating, Ragweed (common ragweed; [14]): 100
Plant response rating, Ragweed (common ragweed; [15]): 100
Plant response rating, Crabgrass, Large (large crabgrass; [13]): 98
Plant response rating (0 = no effect, 100 = complete control), Crabgrass, Large (large crabgrass; 125 g ai/ha, preemergence): 100
Plant response rating, Crabgrass, Large (large crabgrass; [14]): 100
Plant response rating, Crabgrass, Large (large crabgrass; [15]): 100
Plant response rating (0 to 100 scale), Foxtail, Giant (giant foxtail; [12]): 90
Foxtail, Giant plant response rating (giant foxtail; [7]): 20
Foxtail, Giant plant response rating (giant foxtail; [8]): 20
Plant response rating, Kochia (kochia; [13]): 30
Plant response rating (0 = no effect, 100 = complete control), Kochia (kochia; 125 g ai/ha, preemergence): 100
Plant response rating, Kochia (kochia; [14]): 100
Plant response rating, Kochia (kochia; [15]): 100
Sedge, Umbrella plant response rating ([1]; 62 g ai/ha, scale 0 to 100): 65
Sedge, Umbrella plant response rating [1, 9]: 75
Sedge, Umbrella plant response rating [1, 10]: 80
Plant response rating, Sedge, Umbrella [1, 11]: 80

Reference: patent US20060069132A1, “Azolecarboxamide herbicides” (priority 2004, published 2006)
